Laboratory results taken from the supplement of paper PMC10627819.

What was measured:
Test in all cases: fitness (endpoint OD595 vs no drug) (fraction); higher = more growth
[1] = tested on: S. pneumoniae D39V
Procedure, shortened: (§1)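 In 384-well plates at 37 °C, cultures began at OD595 0.01 in 30 µl, with 55 µl used for S. pneumoniae. OD595 readings every 30 min for 14 h were corrected by the first reading. Fitness divides the stationary-phase transition optical density by the robust mean of no-drug control wells. The result is capped at 1.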

[2] = tested on: S. aureus Newman
Procedure, shortened: as §1

[3] = tested on: S. aureus DSM 20231
Procedure, shortened: as §1
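Further: OD595 on entry to stationary phase over no-drug wells; at most 1.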

CO[C@@]12[C@H](COC(N)=O)C3=C(C(=O)C(C)=C(N)C3=O)N1C[C@@H]1N[C@@H]12 [Mitomycin C] + CC1=C\[C@@H](O)CC(=O)Cc2nc(co2)C(=O)N2CCC=C2C(=O)O[C@H](C(C)C)[C@H](C)/C=C/C(=O)NC\C=C\1 [Virginiamycin M1]
Conditions	fitness
[1], first compound 0.001075 µg/mL, partner 0.5 µg/mL	0.966
[1], first compound 0.001075 µg/mL, partner 1 µg/mL	0.929
[1], first compound 0.001075 µg/mL, partner 2 µg/mL	0.928
[1], first compound 0.002 µg/mL, partner 2 µg/mL	0.808
[1], first compound 0.00215 µg/mL, partner 0.5 µg/mL	0.945
[1], first compound 0.00215 µg/mL, partner 1 µg/mL	0.947
[1], first compound 0.00215 µg/mL, partner 2 µg/mL	0.905
[1], first compound 0.004 µg/mL, partner 2 µg/mL	0.783
[1], first compound 0.0043 µg/mL, partner 0.5 µg/mL	0.856
[1], first compound 0.0043 µg/mL, partner 1 µg/mL	0.839
[1], first compound 0.0043 µg/mL, partner 2 µg/mL	0.835
[1], first compound 0.008 µg/mL, partner 2 µg/mL	0.682
[3], first compound 0.0156 µg/mL, partner 0.0625 µg/mL	0.697
[3], first compound 0.0156 µg/mL, partner 0.125 µg/mL	0.712
[3], first compound 0.0156 µg/mL, partner 0.25 µg/mL	0.747
[3], first compound 0.0312 µg/mL, partner 0.0625 µg/mL	0.676
[3], first compound 0.0312 µg/mL, partner 0.125 µg/mL	0.719
[3], first compound 0.0312 µg/mL, partner 0.25 µg/mL	0.714
[3], first compound 0.0625 µg/mL, partner 0.0625 µg/mL	0.576
[3], first compound 0.0625 µg/mL, partner 0.125 µg/mL	0.579
[3], first compound 0.0625 µg/mL, partner 0.25 µg/mL	0.578

fitness, one replicate
Conditions	partner 0.0625 µg/mL	partner 0.125 µg/mL	partner 0.15 µg/mL	partner 0.25 µg/mL	partner 0.3 µg/mL	partner 0.5 µg/mL	partner 1 µg/mL	partner 2 µg/mL
[1], first compound 0.002 µg/mL	–	–	0.927	–	0.894	0.936	0.878	–
[1], first compound 0.004 µg/mL	–	–	0.849	–	0.823	0.887	0.854	–
[1], first compound 0.008 µg/mL	–	–	0.791	–	0.799	0.767	0.626	–
[2], first compound 0.0156 µg/mL	0.71	0.702	–	0.681	–	0.66	0.667	0.593
[2], first compound 0.0312 µg/mL	0.683	0.662	–	0.761	–	0.657	0.602	0.544
[2], first compound 0.0625 µg/mL	0.564	0.597	–	0.583	–	0.564	0.54	0.433
[3], first compound 0.0156 µg/mL	–	–	–	–	–	0.774	0.825	–
[3], first compound 0.0312 µg/mL	–	–	–	–	–	0.681	0.701	–
[3], first compound 0.0625 µg/mL	–	–	–	–	–	0.515	0.611	–

CO[C@@]12[C@H](COC(N)=O)C3=C(C(=O)C(C)=C(N)C3=O)N1C[C@@H]1N[C@@H]12 [Mitomycin C] + CCCCCCCCCC(=O)N[C@@H]1[C@H]([C@@H]([C@H](O[C@H]1OC2=C3C=C4C=C2OC5=C(C=C(C=C5)[C@H]([C@H]6C(=O)N[C@@H](C7=C(C(=CC(=C7)O)OC8[C@H]([C@H]([C@@H]([C@H](O8)CO)O)O)O)C9=C(C=CC(=C9)[C@H](C(=O)N6)NC(=O)[C@@H]4NC(=O)[C@@H]1C2=CC(=CC(=C2)OC2=C(C=CC(=C2)[C@H](C(=O)N[C@H](CC2=CC(=C(O3)C=C2)Cl)C(=O)N1)N)O)O)O)C(=O)O)O[C@H]1[C@@H]([C@H]([C@@H]([C@H](O1)CO)O)O)NC(=O)C)Cl)CO)O)O [Teicoplanin]
fitness, main component drawn
Conditions	first compound 0.0156 µg/mL	first compound 0.0312 µg/mL	first compound 0.0625 µg/mL
[2], partner 0.1562 µg/mL	0.741	0.655	0.429
[2], partner 0.3125 µg/mL	0.753	0.582	0.296
[2], partner 0.625 µg/mL	0.568	0.417	0.138
[3], partner 0.1562 µg/mL	0.813	0.757	0.513
[3], partner 0.3125 µg/mL	0.855	0.81	0.418
[3], partner 0.625 µg/mL	0.902	0.814	0.255

fitness, [2], one replicate, main component drawn
Conditions	first compound 0.0156 µg/mL	first compound 0.0312 µg/mL	first compound 0.0625 µg/mL
partner 0.62 µg/mL	0.603	0.482	0.141
partner 1.24 µg/mL	0.482	0.322	0.02
partner 2.48 µg/mL	0.0779	0.119	0.0423

CO[C@@]12[C@H](COC(N)=O)C3=C(C(=O)C(C)=C(N)C3=O)N1C[C@@H]1N[C@@H]12 [Mitomycin C] + CCN(CC)CCOC(=O)c1ccc(N)cc1 [Procaine]
fitness
Conditions	first compound 0.001075 µg/mL	first compound 0.00215 µg/mL	first compound 0.0043 µg/mL	first compound 0.0156 µg/mL	first compound 0.0312 µg/mL	first compound 0.0625 µg/mL
[1], partner 85.5 µg/mL	0.966	0.935	0.844	–	–	–
[1], partner 171 µg/mL	0.929	0.939	0.814	–	–	–
[1], partner 342 µg/mL	0.937	0.951	0.826	–	–	–
[2], partner 85.5 µg/mL	–	–	–	0.768	0.74	0.595
[2], partner 171 µg/mL	–	–	–	0.765	0.695	0.582
[2], partner 342 µg/mL	–	–	–	0.772	0.686	0.565
[3], partner 85.5 µg/mL	–	–	–	0.724	0.668	0.533
[3], partner 171 µg/mL	–	–	–	0.796	0.753	0.572
[3], partner 342 µg/mL	–	–	–	0.754	0.743	0.576

fitness, [1], one replicate
Conditions	first compound 0.002 µg/mL	first compound 0.004 µg/mL	first compound 0.008 µg/mL
partner 85.5 µg/mL	0.923	0.885	0.633
partner 171 µg/mL	0.885	0.847	0.641
partner 342 µg/mL	0.818	0.812	0.645

CO[C@@]12[C@H](COC(N)=O)C3=C(C(=O)C(C)=C(N)C3=O)N1C[C@@H]1N[C@@H]12 [Mitomycin C] + CN1C2=CC=CC=C2N=C3C1=CC=CC3=O [Pyocyanin]
fitness
Conditions	first compound 0.001075 µg/mL	first compound 0.00215 µg/mL	first compound 0.0043 µg/mL	first compound 0.0156 µg/mL	first compound 0.0312 µg/mL	first compound 0.0625 µg/mL
[1], partner 0.325 µg/mL	0.964	0.984	0.847	–	–	–
[1], partner 0.65 µg/mL	0.964	0.975	0.844	–	–	–
[1], partner 1.3 µg/mL	0.726	0.721	0.621	–	–	–
[2], partner 1.25 µg/mL	–	–	–	0.648	0.614	0.49
[2], partner 2.5 µg/mL	–	–	–	0.558	0.58	0.406
[2], partner 5 µg/mL	–	–	–	0.265	0.239	0.0918
[3], partner 1.25 µg/mL	–	–	–	0.704	0.73	0.573
[3], partner 2.5 µg/mL	–	–	–	0.668	0.691	0.555
[3], partner 5 µg/mL	–	–	–	0.547	0.543	0.414

fitness, [1], one replicate
Conditions	first compound 0.002 µg/mL	first compound 0.004 µg/mL	first compound 0.008 µg/mL
partner 0.325 µg/mL	0.853	0.77	0.642
partner 0.65 µg/mL	0.835	0.802	0.744

CO[C@@]12[C@H](COC(N)=O)C3=C(C(=O)C(C)=C(N)C3=O)N1C[C@@H]1N[C@@H]12 [Mitomycin C] + CN(N=O)C(=O)N[C@@H](C=O)[C@@H](O)[C@H](O)[C@H](O)CO [Streptozotocin]
fitness
Conditions	first compound 0.001075 µg/mL	first compound 0.00215 µg/mL	first compound 0.0043 µg/mL	first compound 0.0156 µg/mL	first compound 0.0312 µg/mL	first compound 0.0625 µg/mL
[1], partner 1.2 µg/mL	0.899	0.84	0.74	–	–	–
[1], partner 2.4 µg/mL	0.911	0.886	0.777	–	–	–
[1], partner 4.8 µg/mL	0.915	0.848	0.603	–	–	–
[2], partner 0.15 µg/mL	–	–	–	0.654	0.578	0.433
[2], partner 0.3 µg/mL	–	–	–	0.615	0.548	0.379
[2], partner 0.6 µg/mL	–	–	–	0.462	0.381	0.185
[3], partner 0.15 µg/mL	–	–	–	0.706	0.656	0.541
[3], partner 0.3 µg/mL	–	–	–	0.633	0.645	0.51
[3], partner 0.6 µg/mL	–	–	–	0.571	0.56	0.433

fitness, [1], one replicate
Conditions	first compound 0.002 µg/mL	first compound 0.004 µg/mL	first compound 0.008 µg/mL
partner 1.2 µg/mL	0.815	0.769	0.525
partner 2.4 µg/mL	0.796	0.739	0.588
partner 4.8 µg/mL	0.653	0.597	0.347

CO[C@@]12[C@H](COC(N)=O)C3=C(C(=O)C(C)=C(N)C3=O)N1C[C@@H]1N[C@@H]12 [Mitomycin C] + CN[C@@H]1[C@H](O)[C@H](NC)[C@H]2O[C@@]3(O)C(=O)C[C@@H](C)O[C@H]3O[C@@H]2[C@H]1O [Spectinomycin]
fitness
Conditions	first compound 0.001075 µg/mL	first compound 0.00215 µg/mL	first compound 0.0043 µg/mL	first compound 0.0156 µg/mL	first compound 0.0312 µg/mL	first compound 0.0625 µg/mL
[1], partner 4 µg/mL	0.899	0.814	0.746	–	–	–
[1], partner 8 µg/mL	0.916	0.824	0.647	–	–	–
[1], partner 16 µg/mL	0.839	0.784	0.628	–	–	–
[2], partner 4 µg/mL	–	–	–	0.653	0.656	0.496
[2], partner 8 µg/mL	–	–	–	0.662	0.684	0.432
[2], partner 16 µg/mL	–	–	–	0.603	0.541	0.33
[3], partner 4 µg/mL	–	–	–	0.726	0.729	0.67
[3], partner 8 µg/mL	–	–	–	0.705	0.733	0.62
[3], partner 16 µg/mL	–	–	–	0.687	0.667	0.57

fitness, one replicate
Conditions	first compound 0.002 µg/mL	first compound 0.004 µg/mL	first compound 0.008 µg/mL	first compound 0.0156 µg/mL	first compound 0.0312 µg/mL	first compound 0.0625 µg/mL
[1], partner 4 µg/mL	0.903	0.851	0.638	–	–	–
[1], partner 8 µg/mL	0.812	0.77	0.562	–	–	–
[2], partner 32 µg/mL	–	–	–	0.294	0.158	0.034
[2], partner 64 µg/mL	–	–	–	0.017	0.0135	0
[3], partner 32 µg/mL	–	–	–	0.614	0.475	0.258
[3], partner 64 µg/mL	–	–	–	0.0362	0.0235	0.0021
